Data as given in publication PMC6164480, “A New Synthetic Histone Deacetylase Inhibitor, MHY2256, Induces Apoptosis and Autophagy Cell Death in Endometrial Cancer Cells via p53 Acetylation” (International Journal of Molecular Sciences, 2018).

Molecular target: T1, SIRT1 (Homo sapiens, UniProt Q96EB6)
T1 sequence (Q96EB6 2-747): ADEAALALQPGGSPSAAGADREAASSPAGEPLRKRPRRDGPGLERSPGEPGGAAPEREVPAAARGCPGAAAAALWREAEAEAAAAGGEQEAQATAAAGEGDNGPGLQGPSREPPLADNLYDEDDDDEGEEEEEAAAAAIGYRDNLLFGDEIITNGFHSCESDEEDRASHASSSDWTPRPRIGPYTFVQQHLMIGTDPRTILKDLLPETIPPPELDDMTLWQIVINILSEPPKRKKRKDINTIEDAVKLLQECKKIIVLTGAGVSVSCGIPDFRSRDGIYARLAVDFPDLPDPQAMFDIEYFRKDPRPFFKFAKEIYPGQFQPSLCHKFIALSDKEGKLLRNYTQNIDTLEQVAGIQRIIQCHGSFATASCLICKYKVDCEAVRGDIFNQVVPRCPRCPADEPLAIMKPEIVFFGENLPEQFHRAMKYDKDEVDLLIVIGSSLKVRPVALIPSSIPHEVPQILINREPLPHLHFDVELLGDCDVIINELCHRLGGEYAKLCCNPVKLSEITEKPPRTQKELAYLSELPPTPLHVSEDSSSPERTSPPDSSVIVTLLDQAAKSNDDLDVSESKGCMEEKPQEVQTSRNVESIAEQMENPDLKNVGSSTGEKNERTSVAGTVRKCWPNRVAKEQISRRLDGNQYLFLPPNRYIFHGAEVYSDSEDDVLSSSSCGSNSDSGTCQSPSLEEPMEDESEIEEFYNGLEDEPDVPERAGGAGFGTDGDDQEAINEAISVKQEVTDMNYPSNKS
Assay: SensoLyte […] FRET fluorimetric SIRT1 enzyme activity assay kit
Type: biochemical

SMILES	IC50
CC(C(=O)Nc1cccc(/N=C/c2c(O)ccc3ccccc23)c1)c1ccccc1 (centres unmarked) [salermide]	4.8 µM
CC(C)(C)c1cc(C=C2C(=O)NC(=S)NC2=O)cc(C(C)(C)C)c1O [MHY2256, 5-(3,5-di-tert-butyl-4-hydroxybenzylidene)-2-thioxodihydropyrimidine-4,6(1H,5H)-dione]	1.89 µM
